Counter-ions that a name gives are not always drawn.
What was measured:
Adrenergic α1A = test: competitive radioligand binding, Adrenergic α1A; conditions: compound concentration of 1 μM
Method: (§1) Profiles of pharmacological activity of thieno-pyrrolo[3,2-c]pyridines of the general formula 1. Biological activity test of compounds of the general formula 1 was carried out in the setting of competitive radioligand binding [I. Okun, S. Tkachenko, A. Khvat, et al., Current Alzheimer Research, 7(2), 97-112 (2010)], using a wide range of therapeutic targets including G-protein coupled receptors (GPCR), ion channels and neuromediator transporters. The tested activity was determined by quantitative measurement of radio-labelled ligand displacement by tested compounds of the general formula 1 at their concentration of 1 μM.

Adrenergic α1B = test: competitive radioligand binding, Adrenergic α1B; conditions: compound concentration of 1 μM
Method: as §1

Adrenergic α1D = target: T1, Adrenergic α1D (Homo sapiens, UniProt P25100); test: competitive radioligand binding, Adrenergic α1D; conditions: compound concentration of 1 μM
T1 sequence (P25100 1-572): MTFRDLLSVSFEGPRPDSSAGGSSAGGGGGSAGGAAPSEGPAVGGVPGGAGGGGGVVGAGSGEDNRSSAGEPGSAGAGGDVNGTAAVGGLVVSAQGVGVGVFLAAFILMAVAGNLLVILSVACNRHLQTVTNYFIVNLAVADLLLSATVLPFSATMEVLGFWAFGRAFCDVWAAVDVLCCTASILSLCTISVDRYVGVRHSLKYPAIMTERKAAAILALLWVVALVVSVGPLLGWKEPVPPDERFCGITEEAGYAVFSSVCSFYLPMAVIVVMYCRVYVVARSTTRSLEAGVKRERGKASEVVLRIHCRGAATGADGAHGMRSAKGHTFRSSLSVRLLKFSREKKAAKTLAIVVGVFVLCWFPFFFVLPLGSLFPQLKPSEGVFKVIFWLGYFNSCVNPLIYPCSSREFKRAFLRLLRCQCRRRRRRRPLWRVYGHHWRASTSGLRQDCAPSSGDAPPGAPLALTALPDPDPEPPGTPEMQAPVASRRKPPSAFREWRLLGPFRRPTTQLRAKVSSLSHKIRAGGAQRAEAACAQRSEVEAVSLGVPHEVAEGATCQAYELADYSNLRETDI
Method: as §1

Adrenergic α2A = target: T2, Adrenergic α2A (Homo sapiens, UniProt P08913); test: competitive radioligand binding, Adrenergic α2A; conditions: compound concentration of 1 μM
T2 sequence (P08913 1-465): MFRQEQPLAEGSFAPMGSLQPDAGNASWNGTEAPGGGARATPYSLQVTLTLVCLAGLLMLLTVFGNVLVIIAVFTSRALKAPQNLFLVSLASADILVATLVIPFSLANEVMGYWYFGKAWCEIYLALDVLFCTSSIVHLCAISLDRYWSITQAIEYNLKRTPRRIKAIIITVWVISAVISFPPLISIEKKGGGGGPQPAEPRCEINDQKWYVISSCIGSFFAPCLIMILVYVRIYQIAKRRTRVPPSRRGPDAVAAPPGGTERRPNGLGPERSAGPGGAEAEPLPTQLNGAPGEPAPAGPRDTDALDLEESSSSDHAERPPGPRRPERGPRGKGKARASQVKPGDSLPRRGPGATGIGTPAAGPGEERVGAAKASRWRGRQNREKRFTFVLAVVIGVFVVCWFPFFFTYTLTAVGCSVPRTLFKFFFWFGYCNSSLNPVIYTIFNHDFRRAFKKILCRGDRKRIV
Method: as §1

Dopaminergic D1 = Dopaminergic D1 (Homo sapiens, UniProt P21728); test: competitive radioligand binding, Dopaminergic D1; conditions: compound concentration of 1 μM
Chain of Dopaminergic D1 (P21728 whole entry): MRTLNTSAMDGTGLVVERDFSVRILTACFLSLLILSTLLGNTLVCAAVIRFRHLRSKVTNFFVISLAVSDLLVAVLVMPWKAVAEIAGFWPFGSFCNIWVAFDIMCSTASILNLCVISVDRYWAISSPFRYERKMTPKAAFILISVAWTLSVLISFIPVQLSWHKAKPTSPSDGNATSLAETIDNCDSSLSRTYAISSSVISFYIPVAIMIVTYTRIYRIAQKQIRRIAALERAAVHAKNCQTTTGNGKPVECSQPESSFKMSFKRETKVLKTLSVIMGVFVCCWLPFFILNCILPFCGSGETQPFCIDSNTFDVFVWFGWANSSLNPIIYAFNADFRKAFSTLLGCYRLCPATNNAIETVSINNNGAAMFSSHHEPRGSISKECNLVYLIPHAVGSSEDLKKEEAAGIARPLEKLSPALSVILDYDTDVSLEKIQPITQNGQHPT
Method: as §1

Dopaminergic D2L = Dopaminergic D2L (Homo sapiens, UniProt P14416); test: competitive radioligand binding, Dopaminergic D2L; conditions: compound concentration of 1 μM
Chain of Dopaminergic D2L (P14416 whole entry): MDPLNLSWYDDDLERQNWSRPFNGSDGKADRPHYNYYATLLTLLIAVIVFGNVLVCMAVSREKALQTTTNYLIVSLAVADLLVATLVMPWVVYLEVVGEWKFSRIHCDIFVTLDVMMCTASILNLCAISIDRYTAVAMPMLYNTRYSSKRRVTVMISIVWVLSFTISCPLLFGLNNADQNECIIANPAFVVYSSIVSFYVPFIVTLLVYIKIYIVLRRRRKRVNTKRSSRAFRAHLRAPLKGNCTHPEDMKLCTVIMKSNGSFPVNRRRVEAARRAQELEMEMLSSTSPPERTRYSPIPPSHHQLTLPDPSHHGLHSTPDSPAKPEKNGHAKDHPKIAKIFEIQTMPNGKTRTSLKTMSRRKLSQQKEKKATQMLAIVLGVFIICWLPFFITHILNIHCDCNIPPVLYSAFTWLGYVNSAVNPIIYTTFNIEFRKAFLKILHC
Method: as §1

Dopaminergic D2S = Dopaminergic D2S (Homo sapiens, UniProt P14416); test: competitive radioligand binding, Dopaminergic D2S; conditions: compound concentration of 1 μM
Chain of Dopaminergic D2S (P14416 1-414 isoform P14416-2): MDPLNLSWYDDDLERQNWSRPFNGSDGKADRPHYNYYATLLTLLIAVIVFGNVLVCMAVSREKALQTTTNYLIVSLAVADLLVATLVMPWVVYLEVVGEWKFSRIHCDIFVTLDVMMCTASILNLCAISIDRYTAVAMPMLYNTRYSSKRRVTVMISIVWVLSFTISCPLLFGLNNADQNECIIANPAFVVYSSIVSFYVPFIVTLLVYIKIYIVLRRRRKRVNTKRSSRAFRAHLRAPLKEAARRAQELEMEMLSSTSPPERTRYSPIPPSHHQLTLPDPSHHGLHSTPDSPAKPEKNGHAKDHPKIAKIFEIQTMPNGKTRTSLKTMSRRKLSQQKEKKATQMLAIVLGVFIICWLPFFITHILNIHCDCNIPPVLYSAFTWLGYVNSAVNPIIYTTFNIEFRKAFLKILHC
Method: as §1

Dopaminergic D3 = Dopaminergic D3 (Homo sapiens, UniProt P35462); test: competitive radioligand binding, Dopaminergic D3; conditions: compound concentration of 1 μM
Chain of Dopaminergic D3 (P35462 whole entry): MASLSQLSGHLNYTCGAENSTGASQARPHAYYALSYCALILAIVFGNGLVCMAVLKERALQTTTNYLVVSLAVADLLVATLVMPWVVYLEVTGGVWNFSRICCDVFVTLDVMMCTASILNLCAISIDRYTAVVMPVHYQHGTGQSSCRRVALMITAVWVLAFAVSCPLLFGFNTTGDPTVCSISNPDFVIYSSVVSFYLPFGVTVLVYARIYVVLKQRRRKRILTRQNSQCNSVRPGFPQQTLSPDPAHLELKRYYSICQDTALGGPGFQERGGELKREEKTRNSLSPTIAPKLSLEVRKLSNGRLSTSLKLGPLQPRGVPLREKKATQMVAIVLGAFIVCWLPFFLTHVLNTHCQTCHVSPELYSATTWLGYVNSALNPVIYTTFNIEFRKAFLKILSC
Method: as §1

Dopaminergic D4.2 = target: T3, Dopaminergic D4.2 (Homo sapiens, UniProt P21917, DEL265-296); test: competitive radioligand binding, Dopaminergic D4.2; conditions: compound concentration of 1 μM
T3 sequence (P21917 with tags, fused parts or gaps DEL265-296): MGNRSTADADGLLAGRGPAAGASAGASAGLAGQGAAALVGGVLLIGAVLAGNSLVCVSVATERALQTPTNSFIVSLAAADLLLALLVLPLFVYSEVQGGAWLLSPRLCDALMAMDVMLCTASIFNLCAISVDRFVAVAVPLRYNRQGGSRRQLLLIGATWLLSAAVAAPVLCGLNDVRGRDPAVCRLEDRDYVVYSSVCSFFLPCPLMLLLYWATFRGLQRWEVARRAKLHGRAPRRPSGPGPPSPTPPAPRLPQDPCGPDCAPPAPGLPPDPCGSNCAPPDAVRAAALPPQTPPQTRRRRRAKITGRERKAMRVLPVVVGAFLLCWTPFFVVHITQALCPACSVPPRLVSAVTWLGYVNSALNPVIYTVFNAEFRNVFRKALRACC
Method: as §1

Histaminergic H1 = Histaminergic H1 (Homo sapiens, UniProt P35367); test: competitive radioligand binding, Histaminergic H1; conditions: compound concentration of 1 μM
Chain of Histaminergic H1 (P35367 whole entry): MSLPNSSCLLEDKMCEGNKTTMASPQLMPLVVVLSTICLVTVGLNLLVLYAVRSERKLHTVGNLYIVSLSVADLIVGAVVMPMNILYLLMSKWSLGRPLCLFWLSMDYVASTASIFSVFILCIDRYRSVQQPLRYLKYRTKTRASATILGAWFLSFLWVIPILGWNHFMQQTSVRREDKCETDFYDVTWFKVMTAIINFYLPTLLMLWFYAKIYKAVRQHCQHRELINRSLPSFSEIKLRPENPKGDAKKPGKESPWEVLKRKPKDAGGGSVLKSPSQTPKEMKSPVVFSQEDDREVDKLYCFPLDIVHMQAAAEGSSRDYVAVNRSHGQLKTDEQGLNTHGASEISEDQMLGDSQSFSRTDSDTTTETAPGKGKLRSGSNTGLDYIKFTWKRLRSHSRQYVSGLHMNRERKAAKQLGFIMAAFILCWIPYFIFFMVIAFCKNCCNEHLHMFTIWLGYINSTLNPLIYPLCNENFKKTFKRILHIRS
Method: as §1

Histaminergic H2 = Histaminergic H2 (Homo sapiens, UniProt P25021); test: competitive radioligand binding, Histaminergic H2; conditions: compound concentration of 1 μM
Chain of Histaminergic H2 (P25021 whole entry): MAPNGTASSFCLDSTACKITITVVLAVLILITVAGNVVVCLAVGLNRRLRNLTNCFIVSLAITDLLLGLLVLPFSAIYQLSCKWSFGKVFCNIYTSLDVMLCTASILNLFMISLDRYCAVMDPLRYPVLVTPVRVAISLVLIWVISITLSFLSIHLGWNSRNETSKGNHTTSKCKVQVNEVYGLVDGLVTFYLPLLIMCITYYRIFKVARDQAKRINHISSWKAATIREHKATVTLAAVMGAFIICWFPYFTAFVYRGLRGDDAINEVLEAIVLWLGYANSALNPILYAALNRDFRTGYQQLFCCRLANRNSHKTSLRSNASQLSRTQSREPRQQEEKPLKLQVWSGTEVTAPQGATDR
Method: as §1

Histaminergic H3 = Histaminergic H3 (Homo sapiens, UniProt Q9Y5N1); test: competitive radioligand binding, Histaminergic H3; conditions: compound concentration of 1 μM; in % (unit assumed)
Chain of Histaminergic H3 (Q9Y5N1 whole entry): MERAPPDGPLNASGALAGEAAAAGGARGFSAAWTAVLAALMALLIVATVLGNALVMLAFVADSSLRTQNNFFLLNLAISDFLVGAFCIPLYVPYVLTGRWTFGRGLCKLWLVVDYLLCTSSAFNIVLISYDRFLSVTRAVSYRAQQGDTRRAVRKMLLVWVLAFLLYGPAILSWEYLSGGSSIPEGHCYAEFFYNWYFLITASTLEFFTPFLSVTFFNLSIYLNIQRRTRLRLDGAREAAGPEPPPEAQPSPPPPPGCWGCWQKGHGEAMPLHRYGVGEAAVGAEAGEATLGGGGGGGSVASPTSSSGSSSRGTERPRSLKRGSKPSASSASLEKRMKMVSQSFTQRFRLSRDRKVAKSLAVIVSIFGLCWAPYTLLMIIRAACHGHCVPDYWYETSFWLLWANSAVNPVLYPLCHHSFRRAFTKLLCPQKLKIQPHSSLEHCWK
Method: as §1

Serotoninergic 5-HT1A = target: T4, Serotoninergic 5-HT1A (Homo sapiens, UniProt P08908); test: competitive radioligand binding, Serotoninergic 5-HT1A; conditions: compound concentration of 1 μM
T4 sequence (P08908 1-422): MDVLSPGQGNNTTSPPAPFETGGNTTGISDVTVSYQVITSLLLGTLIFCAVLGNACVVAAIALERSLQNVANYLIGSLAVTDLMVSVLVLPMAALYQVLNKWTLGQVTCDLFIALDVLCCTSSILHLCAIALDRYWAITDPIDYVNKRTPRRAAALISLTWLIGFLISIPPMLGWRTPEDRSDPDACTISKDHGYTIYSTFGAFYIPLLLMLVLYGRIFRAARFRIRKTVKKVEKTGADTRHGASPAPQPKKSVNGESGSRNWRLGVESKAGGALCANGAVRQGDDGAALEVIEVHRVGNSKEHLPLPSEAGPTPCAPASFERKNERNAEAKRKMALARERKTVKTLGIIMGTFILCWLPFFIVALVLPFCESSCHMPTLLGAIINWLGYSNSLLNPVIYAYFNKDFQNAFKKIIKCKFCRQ
Method: as §1

Serotoninergic 5-HT1B = test: competitive radioligand binding, Serotoninergic 5-HT1B; conditions: compound concentration of 1 μM
Method: as §1

Serotoninergic 5-HT2A = Serotoninergic 5-HT2A (Homo sapiens, UniProt P28223); test: competitive radioligand binding, Serotoninergic 5-HT2A; conditions: compound concentration of 1 μM
Chain of Serotoninergic 5-HT2A (P28223 whole entry): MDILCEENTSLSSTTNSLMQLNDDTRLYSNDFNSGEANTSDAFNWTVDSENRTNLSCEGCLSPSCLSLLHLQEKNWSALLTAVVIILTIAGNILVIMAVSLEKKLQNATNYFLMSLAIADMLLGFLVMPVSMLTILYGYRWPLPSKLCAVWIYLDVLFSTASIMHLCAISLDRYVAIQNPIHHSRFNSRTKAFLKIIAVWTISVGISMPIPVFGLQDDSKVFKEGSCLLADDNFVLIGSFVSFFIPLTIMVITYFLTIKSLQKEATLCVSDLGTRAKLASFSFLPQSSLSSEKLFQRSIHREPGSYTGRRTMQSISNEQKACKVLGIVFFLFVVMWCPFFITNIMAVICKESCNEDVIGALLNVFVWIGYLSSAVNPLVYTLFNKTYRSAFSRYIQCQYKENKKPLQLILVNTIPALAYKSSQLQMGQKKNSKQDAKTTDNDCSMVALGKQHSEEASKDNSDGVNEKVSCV
Method: as §1

Serotoninergic 5-HT2B = Serotoninergic 5-HT2B (Homo sapiens, UniProt P41595); test: competitive radioligand binding, Serotoninergic 5-HT2B; conditions: compound concentration of 1 μM
Chain of Serotoninergic 5-HT2B (P41595 whole entry): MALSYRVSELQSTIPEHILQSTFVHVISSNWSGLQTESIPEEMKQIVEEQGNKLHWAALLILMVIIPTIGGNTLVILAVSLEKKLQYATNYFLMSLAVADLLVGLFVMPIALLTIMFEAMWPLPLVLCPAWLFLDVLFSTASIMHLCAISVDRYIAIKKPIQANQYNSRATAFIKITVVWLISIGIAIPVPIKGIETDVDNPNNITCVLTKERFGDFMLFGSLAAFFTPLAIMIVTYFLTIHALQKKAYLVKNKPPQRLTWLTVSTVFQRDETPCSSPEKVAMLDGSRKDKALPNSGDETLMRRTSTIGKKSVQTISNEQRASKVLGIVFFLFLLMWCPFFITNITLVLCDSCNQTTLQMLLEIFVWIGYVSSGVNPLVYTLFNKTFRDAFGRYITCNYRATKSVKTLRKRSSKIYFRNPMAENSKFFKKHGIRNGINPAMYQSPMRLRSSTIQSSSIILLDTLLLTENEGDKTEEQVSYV
Method: as §1

Serotoninergic 5-HT2C = target: T5, Serotoninergic 5-HT2C (Homo sapiens, UniProt P28335); test: competitive radioligand binding, Serotoninergic 5-HT2C; conditions: compound concentration of 1 μM
T5 sequence (P28335 33-458): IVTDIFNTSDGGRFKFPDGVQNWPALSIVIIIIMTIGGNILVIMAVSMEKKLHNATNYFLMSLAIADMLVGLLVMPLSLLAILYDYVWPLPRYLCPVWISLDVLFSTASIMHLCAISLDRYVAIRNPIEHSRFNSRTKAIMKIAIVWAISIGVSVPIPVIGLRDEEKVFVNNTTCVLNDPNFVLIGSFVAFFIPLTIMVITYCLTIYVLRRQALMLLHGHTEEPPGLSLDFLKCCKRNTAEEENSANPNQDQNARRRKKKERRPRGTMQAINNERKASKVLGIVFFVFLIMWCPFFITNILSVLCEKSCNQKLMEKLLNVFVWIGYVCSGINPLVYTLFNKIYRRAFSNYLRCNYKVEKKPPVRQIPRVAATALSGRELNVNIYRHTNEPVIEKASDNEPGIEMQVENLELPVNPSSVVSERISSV
Method: as §1

Serotoninergic 5-HT6 = Serotoninergic 5-HT6 (Homo sapiens, UniProt P50406); test: competitive radioligand binding, Serotoninergic 5-HT6; conditions: compound concentration of 1 μM
Chain of Serotoninergic 5-HT6 (P50406 whole entry): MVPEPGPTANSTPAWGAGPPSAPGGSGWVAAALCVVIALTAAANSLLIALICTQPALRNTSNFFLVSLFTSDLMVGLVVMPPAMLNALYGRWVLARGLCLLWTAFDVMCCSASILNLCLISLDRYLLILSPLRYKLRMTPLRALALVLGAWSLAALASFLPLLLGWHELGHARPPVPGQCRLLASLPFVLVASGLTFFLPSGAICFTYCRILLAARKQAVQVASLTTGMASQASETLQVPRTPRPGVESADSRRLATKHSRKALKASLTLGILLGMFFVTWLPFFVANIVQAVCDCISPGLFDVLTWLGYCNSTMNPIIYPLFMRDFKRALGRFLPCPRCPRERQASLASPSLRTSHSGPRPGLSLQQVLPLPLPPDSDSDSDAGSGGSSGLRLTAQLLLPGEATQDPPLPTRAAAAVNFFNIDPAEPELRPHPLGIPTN
Method: as §1

Serotoninergic 5-HT7 = Serotoninergic 5-HT7 (Homo sapiens, UniProt P34969); test: competitive radioligand binding, Serotoninergic 5-HT7; conditions: compound concentration of 1 μM
Chain of Serotoninergic 5-HT7 (P34969 whole entry): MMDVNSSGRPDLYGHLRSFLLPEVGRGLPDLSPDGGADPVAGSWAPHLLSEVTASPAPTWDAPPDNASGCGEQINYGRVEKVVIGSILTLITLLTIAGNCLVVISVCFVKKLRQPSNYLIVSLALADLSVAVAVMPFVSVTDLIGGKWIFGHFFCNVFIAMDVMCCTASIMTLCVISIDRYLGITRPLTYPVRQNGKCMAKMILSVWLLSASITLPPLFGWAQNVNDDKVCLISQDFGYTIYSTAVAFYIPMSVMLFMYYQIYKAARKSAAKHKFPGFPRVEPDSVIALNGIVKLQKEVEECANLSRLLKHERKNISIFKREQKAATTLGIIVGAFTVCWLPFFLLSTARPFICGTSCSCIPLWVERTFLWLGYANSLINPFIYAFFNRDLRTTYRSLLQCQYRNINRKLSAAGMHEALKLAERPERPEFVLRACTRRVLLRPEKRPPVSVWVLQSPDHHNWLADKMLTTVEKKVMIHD
Method: as §1

[1] = tested on: Therapeutic targets (Adrenergic, Dopaminergic, Histaminergic, Serotoninergic); test: Profiles of pharmacological activity in competitive radioligand binding (whole panel); conditions: 1 μM, grades not defined
Method: as §1

Cc1cc2c3c(n(CCc4ccc(Cl)cc4)c2s1)C(C)CN(C)C3 (centres unmarked) [3.6(4)•HCl, 2,5,7-trimethyl-8-(4-chlorophenethyl)-4,5,6,7-tetrahydro-5H-thieno[3′,2′:4,5]pyrrolo[3,2-c]pyridine]
radio-labelled ligand displacement, Adrenergic α1A (Adrenergic α1A): 89%
radio-labelled ligand displacement, Adrenergic α1B (Adrenergic α1B): 91%
radio-labelled ligand displacement, Adrenergic α1D (Adrenergic α1D): 89%
radio-labelled ligand displacement, Adrenergic α2A (Adrenergic α2A): 93%
radio-labelled ligand displacement, Dopaminergic D1 (Dopaminergic D1): 56%
radio-labelled ligand displacement, Dopaminergic D2L (Dopaminergic D2L): 45%
radio-labelled ligand displacement, Dopaminergic D2S (Dopaminergic D2S): 72%
radio-labelled ligand displacement, Dopaminergic D3 (Dopaminergic D3): 63%
radio-labelled ligand displacement, Dopaminergic D4.2 (Dopaminergic D4.2): 54%
radio-labelled ligand displacement, Histaminergic H1 (Histaminergic H1): 95%
radio-labelled ligand displacement, Histaminergic H2 (Histaminergic H2): 63%
radio-labelled ligand displacement, Histaminergic H3 (Histaminergic H3): 8
radio-labelled ligand displacement, Serotoninergic 5-HT1A (Serotoninergic 5-HT1A): 29%
radio-labelled ligand displacement, Serotoninergic 5-HT1B (Serotoninergic 5-HT1B): 41%
radio-labelled ligand displacement, Serotoninergic 5-HT2A (Serotoninergic 5-HT2A): 97%
radio-labelled ligand displacement, Serotoninergic 5-HT2B (Serotoninergic 5-HT2B): 78%
radio-labelled ligand displacement, Serotoninergic 5-HT2C (Serotoninergic 5-HT2C): 96%
radio-labelled ligand displacement, Serotoninergic 5-HT6 (Serotoninergic 5-HT6): 99%
radio-labelled ligand displacement, Serotoninergic 5-HT7 (Serotoninergic 5-HT7): 99%
grade of the activity profile (poor / satisfactory / good) [1]: good

Cc1cc2c3c(n(CC(O)c4ccccc4)c2s1)CCN(C)C3.Cl (centres unmarked) [3.7(1)•HCl, 2-(2,5-Dimethyl-4,5,6,7-tetrahydro-5H-thieno[3′,2′:4,5]pyrrolo[3,2-c]pyridin-8-yl)-1-phenylethanol hydrochloride]
radio-labelled ligand displacement, Adrenergic α1A (Adrenergic α1A): 79%
radio-labelled ligand displacement, Adrenergic α1B (Adrenergic α1B): 89%
radio-labelled ligand displacement, Adrenergic α1D (Adrenergic α1D): 86%
radio-labelled ligand displacement, Adrenergic α2A (Adrenergic α2A): 91%
radio-labelled ligand displacement, Dopaminergic D1 (Dopaminergic D1): 47%
radio-labelled ligand displacement, Dopaminergic D2L (Dopaminergic D2L): 35%
radio-labelled ligand displacement, Dopaminergic D2S (Dopaminergic D2S): 29%
radio-labelled ligand displacement, Dopaminergic D3 (Dopaminergic D3): 23%
radio-labelled ligand displacement, Dopaminergic D4.2 (Dopaminergic D4.2): 33%
radio-labelled ligand displacement, Histaminergic H1 (Histaminergic H1): 89%
radio-labelled ligand displacement, Histaminergic H2 (Histaminergic H2): 57%
radio-labelled ligand displacement, Histaminergic H3 (Histaminergic H3): −3
radio-labelled ligand displacement, Serotoninergic 5-HT1A (Serotoninergic 5-HT1A): 18%
radio-labelled ligand displacement, Serotoninergic 5-HT1B (Serotoninergic 5-HT1B): 30%
radio-labelled ligand displacement, Serotoninergic 5-HT2A (Serotoninergic 5-HT2A): 97%
radio-labelled ligand displacement, Serotoninergic 5-HT2B (Serotoninergic 5-HT2B): 63%
radio-labelled ligand displacement, Serotoninergic 5-HT2C (Serotoninergic 5-HT2C): 94%
radio-labelled ligand displacement, Serotoninergic 5-HT6 (Serotoninergic 5-HT6): 99%
radio-labelled ligand displacement, Serotoninergic 5-HT7 (Serotoninergic 5-HT7): 96%

Cc1ccc(C=CCn2c3c(c4cc(C)sc42)CN(C)CC3)cc1 [3.11(2)•HCl, 2,5-dimethyl-8-[3-(p-tolyl)allyl]-4,5,6,7-tetrahydro-5H-thieno[3′,2′:4,5]pyrrolo[3,2-c]pyridine]
radio-labelled ligand displacement, Adrenergic α1A (Adrenergic α1A): 55%
radio-labelled ligand displacement, Adrenergic α1B (Adrenergic α1B): 60%
radio-labelled ligand displacement, Adrenergic α1D (Adrenergic α1D): 42%
radio-labelled ligand displacement, Adrenergic α2A (Adrenergic α2A): 53%
radio-labelled ligand displacement, Dopaminergic D1 (Dopaminergic D1): 10%
radio-labelled ligand displacement, Dopaminergic D2L (Dopaminergic D2L): 50%
radio-labelled ligand displacement, Dopaminergic D2S (Dopaminergic D2S): 61%
radio-labelled ligand displacement, Dopaminergic D3 (Dopaminergic D3): 49%
radio-labelled ligand displacement, Dopaminergic D4.2 (Dopaminergic D4.2): 13%
radio-labelled ligand displacement, Histaminergic H1 (Histaminergic H1): 81%
radio-labelled ligand displacement, Histaminergic H2 (Histaminergic H2): 50%
radio-labelled ligand displacement, Histaminergic H3 (Histaminergic H3): 7
radio-labelled ligand displacement, Serotoninergic 5-HT1A (Serotoninergic 5-HT1A): 21%
radio-labelled ligand displacement, Serotoninergic 5-HT1B (Serotoninergic 5-HT1B): 39%
radio-labelled ligand displacement, Serotoninergic 5-HT2A (Serotoninergic 5-HT2A): 93%
radio-labelled ligand displacement, Serotoninergic 5-HT2B (Serotoninergic 5-HT2B): 89%
radio-labelled ligand displacement, Serotoninergic 5-HT2C (Serotoninergic 5-HT2C): 93%
radio-labelled ligand displacement, Serotoninergic 5-HT6 (Serotoninergic 5-HT6): 95%
radio-labelled ligand displacement, Serotoninergic 5-HT7 (Serotoninergic 5-HT7): 85%
grade of the activity profile (poor / satisfactory / good) [1]: satisfactory

From patent US20130267551A1, “SUBSTITUTED HYDROGENATED THIENO-PYRROLO[3,2-C]PYRIDINE, LIGANDS, A PHARMACEUTICAL COMPOSITION AND A METHOD FOR USING THE ABOVE” (ALLA CHEM, LLC, priority 2010, published 2013)
